Measurements taken from US20140256756A1, “PIPERIDINYL-SUBSTITUTED LACTAMS AS GPR119 MODULATORS” (Array BioPharma Inc., priority 2011, published 2014).
Structures can show the parent of a compound that is named as a salt.

Test system: modified version of the GPR119 receptor (94% identity to human receptor)
Experiment: cAMP production assay (LANCE cAMP kit, TR-FRET) in HEK-293 cells
Format: cell-based
Settings: for cAMP production in HEK-293 cells: HEK-293 cells stably expressing modified GPR119, test compounds 0.2 nM to 10 μM, one-hour incubation; for Fold over baseline: increase in cAMP relative to basal levels, agonist activity if 1.5-fold or greater
Experimental: The assay utilized HEK-293 cells that stably express a modified version of the GPR119 receptor (94% identity to human receptor), under the control of a CMV promoter containing a tet-on element for tetracycline-inducible expression. GPR119 agonist-induced cyclic AMP (cAMP) production was measured in this cell line using the LANCE cAMP kit (Perkin Elmer, Waltham, Mass.). To generate a working stock of cells for the assay, cells were treated overnight with 1 μg/mL doxycycline at 37° C. in the presence of 5% CO2 to induce receptor expression. Cells were then harvested by enzymatic dissociation with 0.05% trypsin, resuspended in freezing medium (DMEM growth medium with 10% each of fetal bovine serum and DMSO), aliquoted and frozen at −80° C. On the day of the assay, frozen cells were thawed, washed 1× in PBS and resuspended in Hank's buffered salt solution (HBSS) containing 5 mM HEPES, 0.1% BSA and Alexa Fluor 647-conjugated anti-cAMP antibody (diluted 1:100). The cell suspension was then transferred to a Proxiplate Plus white 384-well assay plate (Perkin-Elmer) at 2000 cells/well. Test compounds at final concentrations ranging from 0.2 nM to 10 μM were added to the assay plate, followed by a one-hour incubation at ambient temperature (volume=10 μL/well). DMSO concentration was held constant at 0.5%. After incubation with test compounds, 10 μL, of a detergent buffer containing a biotinylated cAMP/Europium-conjugated streptavidin complex (Europium-labeled cAMP tracer) were added to each well on the assay plate, followed by a 2-hour incubation at ambient temperature. During this incubation cAMP released from lysed cells competes with the Europium-labeled cAMP tracer for binding to the Alexa Fluor 647-conjugated antibody. […] Cellular cAMP levels were then determined by interpolation of raw signal data using a cAMP standard curve. Compounds were determined to have agonist activity if they stimulated a 1.5-fold or greater increase in cAMP relative to basal levels.

| Compound | cAMP production in HEK-293 cells | Fold over baseline |
| --- | --- | --- |
| CC(C)c1nsc(N2CCC(N3CCC[C@H](Nc4ccc(S(C)(=O)=O)cc4F)C3=O)CC2)n1 [Example 27, (S)-3-(2-fluoro-4-(methylsulfonyl)phenylamino)-1′-(3-isopropyl-1,2,4-thiadiazol-5-yl)-[1,4′-bipiperidin]-2-one] | 17.5 nmol | 3.0 |
| CC(C)(C)c1nsc(N2CCC(N3CC[C@H](Oc4cc(F)c(S(C)(=O)=O)cc4F)C3=O)CC2)n1 [Example 34, (S)-1-(1-(3-tert-butyl-1,2,4-thiadiazol-5-yl)piperidin-4-yl)-3-(2,5-difluoro-4-(methylsulfonyl)phenoxy)pyrrolidin-2-one] | 29.2 nmol | 4.5 |
| CC(C)Cc1nsc(N2CCC(N3CCC(Oc4cc(F)c(S(C)(=O)=O)cc4F)C3=O)CC2)n1 (stereo not shown) [Example 49, 3-(2,5-difluoro-4-(methylsulfonyl)phenoxy)-1-(1-(3-isobutyl-1,2,4-thiadiazol-5-yl)piperidin-4-yl)pyrrolidin-2-one trifluoroacetate] | 15.4 nmol | 2.8 |
| CS(=O)(=O)c1ccc(O[C@H]2CCN(C3CCN(c4nc(C5CCOCC5)ns4)CC3)C2=O)c(F)c1 [Example 59, (S)-3-(2-fluoro-4-(methylsulfonyl)phenoxy)-1-(1-(3-(tetrahydro-2H-pyran-4-yl)-1,2,4-thiadiazol-5-yl)piperidin-4-yl)pyrrolidin-2-one] | 28.3 nmol | 4.2 |
| CS(=O)(=O)c1ccc(N[C@H]2CCN(C3CCN(c4nc(-c5ccccc5)ns4)CC3)C2=O)c(F)c1 [Example 24, (S)-3-(2-fluoro-4-(methylsulfonyl)phenylamino)-1-(1-(3-phenyl-1,2,4-thiadiazol-5-yl)piperidin-4-yl)pyrrolidin-2-one] | 9.7 nmol | 2.6 |
| CC(C)c1nsc(N2CCC(N3CCC(Oc4ccc(C(=O)NCCN(C)C)cc4F)C3=O)CC2)n1 (stereo not shown) [Example 81, N-(2-(dimethylamino)ethyl)-3 fluoro-4-(1-(1-(3-isopropyl-1,2,4-thiadiazol-5-yl)piperidin-4-yl)-2-oxopyrrolidin-3-yloxy)benzamide] | 11.7 nmol | 2.4 |
| Cn1cc(-c2nsc(N3CCC(N4CC[C@H](Oc5ccc(S(C)(=O)=O)cc5F)C4=O)CC3)n2)cn1 [Example 73, (S)-3-(2-fluoro-4-(methylsulfonyl)phenoxy)-1-(1-(3-(1-methyl-1H-pyrazol-4-yl)-1,2,4-thiadiazol-5-yl)piperidin-4-yl)pyrrolidin-2-one] | 6.2 nmol | 2.2 |
| CC(C)c1nsc(N2CCC(N3CCC(Oc4ccc(S(=O)(=O)CC5CC5)cc4F)C3=O)CC2)n1 (stereo not shown) [Example 44, 3-(4-(Cyclopropylmethylsulfonyl)-2-fluorophenoxy)-1-(1-(3-isopropyl-1,2,4-thiadiazol-5-yl)piperidin-4-yl)pyrrolidin-2-one trifluoroacetate] | 23.8 nmol | 3.4 |
| CS(=O)(=O)c1ccc(N[C@H]2CCN(C3CCN(c4nc([C@H](O)CO)ns4)CC3)C2=O)c(F)c1 [Example 25, (S)-1-(1-(3-((S)-1,2-dihydroxyethyl)-1,2,4-thiadiazol-5-yl)piperidin-4-yl)-3-(2-fluoro-4-(methylsulfonyl)phenylamino)pyrrolidin-2-one] | 8.3 nmol | 2.1 |
| CS(=O)(=O)c1cc(F)c(O[C@H]2CCCN(C3CCN(c4nc(C(F)(F)F)ns4)CC3)C2=O)cc1F [Example 93, (S)-3-(2,5-difluoro-4-(methylsulfonyl)phenoxy)-1′-(3-(trifluoromethyl)-1,2,4-thiadiazol-5-yl)-[1,4′-bipiperidin]-2-one] | 9.0 nmol | 2.9 |
| CN(C)c1nsc(N2CCC(N3CC[C@H](Oc4cc(F)c(S(C)(=O)=O)cc4F)C3=O)CC2)n1 [Example 55, (S)-3-(2,5-difluoro-4-(methylsulfonyl)phenoxy)-1-(1-(3-(dimethylamino)-1,2,4-thiadiazol-5-yl)piperidin-4-yl)pyrrolidin-2-one] | 17.2 nmol | 3.8 |
| CC(C)c1nsc(N2CCC(N3CCC(Oc4ccc(S(C)(=O)=O)cc4)C3=O)CC2)n1 (stereo not shown) [Example 65, -(1-(3-Isopropyl-1,2,4-thiadiazol-5-yl)piperidin-4-yl)-3-(4-(methylsulfonyl)phenoxy)pyrrolidin-2-one] | 22.1 nmol | 4.1 |
| CC(C)c1nsc(N2CCC(N3CCC(Oc4ccc(Br)cc4F)C3=O)CC2)n1 (stereo not shown) [Example 33, 3-(4-bromo-2-fluorophenoxy)-1-(1-(3-isopropyl-1,2,4-thiadiazol-5-yl)piperidin-4-yl)pyrrolidin-2-one] | 16.9 nmol | 2.7 |
| COC(C)(C)c1nsc(N2CCC(N3CC[C@H](Oc4c(F)cc(S(C)(=O)=O)cc4F)C3=O)CC2)n1 [Example 40, (S)-3-(2,6-difluoro-4-(methylsulfonyl)phenoxy)-1-(1-(3-(2-methoxypropan-2-yl)-1,2,4-thiadiazol-5-yl)piperidin-4-yl)pyrrolidin-2-one] | 21.1 nmol | 3.9 |
| CS(=O)(=O)c1cc(F)c(O[C@H]2CCN(C3CCN(c4cnc(C(F)(F)F)s4)CC3)C2=O)cc1F [Example 98, (S)-3-(2,5-difluoro-4-(methylsulfonyl)phenoxy)-1-(1-(2-(trifluoromethyl)thiazol-5-yl)piperidin-4-yl)pyrrolidin-2-one] | 23.7 nmol | 5.4 |
| CC(C)c1nsc(N2CCC(N3CC[C@@H](Oc4ccc(S(C)(=O)=O)cc4F)C3=O)CC2)n1 [Example 51, (R)-3-(2-fluoro-4-(methylsulfonyl)phenoxy)-1-(1-(3-isopropyl-1,2,4-thiadiazol-5-yl)piperidin-4-yl)pyrrolidin-2-one] | 33.3 nmol | 5.9 |
| CC(C)(C)c1nsc(N2CCC(N3CCC[C@H](Nc4ccc(S(C)(=O)=O)cc4F)C3=O)CC2)n1 [Example 30, (S)-1′-(3-tert-butyl-1,2,4-thiadiazol-5-yl)-3-(2-fluoro-4-(methylsulfonyl)phenylamino)-[1,4′-bipiperidin]-2-one] | 13.9 nmol | 2.8 |
| CC(C)c1nsc(N2CCC(N3CCC(Oc4ccc(C(=O)N(C)CCO)cc4F)C3=O)CC2)n1 (stereo not shown) [Example 79, 3-fluoro-N-(2-hydroxyethyl)-4-(1-(1-(3 isopropyl-1,2,4-thiadiazol-5-yl)piperidin-4-yl)-2-oxopyrrolidin-3-yloxy)-N-methylbenzamide] | 19.0 nmol | 3.2 |
| Cc1ncccc1-c1nsc(N2CCC(N3CC[C@H](Oc4ccc(S(C)(=O)=O)cc4F)C3=O)CC2)n1 [Example 71, (S)-3-(2-fluoro-4-(methylsulfonyl)phenoxy)-1-(1-(3-(2-methylpyridin-3-yl)-1,2,4-thiadiazol-5-yl)piperidin-4-yl)pyrrolidin-2-one] | 5.9 nmol | 2.1 |
| CC(C)c1nsc(N2CCC(N3CC[C@H](Oc4cc(F)c(S(C)(=O)=O)cc4F)C3=O)CC2)n1 [Example 52, (S)-3-(2,5-difluoro-4-(methylsulfonyl)phenoxy)-1-(1-(3-isopropyl-1,2,4-thiadiazol-5-yl)piperidin-4-yl)pyrrolidin-2-one] | 24.6 nmol | 3.9 |
| CC(C)c1nsc(N2CCC(N3CC[C@@H](Nc4ccc(S(=O)(=O)N(C)C)cc4F)C3=O)CC2)n1 [Example 13, (R)-3-fluoro-4-(1-(1-(3-isopropyl-1,2,4-thiadiazol-5-yl)piperidin-4-yl)-2-oxopyrrolidin-3-ylamino)-N,N-dimethylbenzenesulfonamide] | 25.2 nmol | 3.4 |
| CC(C)c1nsc(N2CCC(N3CC[C@@H](Nc4ccc(S(=O)(=O)C5CC5)cc4F)C3=O)CC2)n1 [Example 7, (R)-3-(4-(cyclopropylsulfonyl)-2-fluorophenylamino)-1-(1-(3-isopropyl-1,2,4-thiadiazol-5-yl)piperidin-4-yl)pyrrolidin-2-one] | 23.8 nmol | 3.4 |
| CC(C)c1nsc(N2CCC(N3CC[C@H](Nc4ccc(S(C)(=O)=O)cc4C#N)C3=O)CC2)n1 [Example 10, (S)-2-(1-(1-(3-isopropyl-1,2,4-thiadiazol-5-yl)piperidin-4-yl)-2-oxopyrrolidin-3-ylamino)-5-(methylsulfonyl)benzonitrile] | 11.3 nmol | 2.3 |
